Data reported in publication PMC9649909, “Wnt-pathway inhibitors with selective activity against triple-negative breast cancer: From thienopyrimidine to quinazoline inhibitors” (Frontiers in Pharmacology, 2022).
Like-named read-outs stand apart in the source and are kept apart here.

How the values were obtained:
[1] = tested on: β-catenin-dependent Wnt-pathway; assay: TopFlash luciferase reporter assay, CHIR99021-stimulated, HCC1395; assay type: cell-based; conditions: for Emax / IC50: stimulation with CHIR99021 (GSK3β inhibitor); for Emax: read-out: HCC1395 TopFlash Efficacy; for IC50: read-out: HCC1395 TopFlash IC50
Description: Both stimulations abolish formation of the destruction complex, a multiprotein complex consisting of Axin, adenomatous polyposis coli (APC), glycogen synthase kinase three beta (GSK3β), and casein kinase one alpha (CK1α). Upon inactivation of the complex, β-catenin accumulates in the cytoplasm and translocates into the nucleus where it interacts with transcription factors. These downstream events are quantified by a Luciferase transcription-based readout assay (TopFlash assay).

HCC1395 TNBC cell line = assay: MTT survival assay HCC1395; assay type: cell-based; conditions: Homo sapiens, HCC1395
Protocol: (§1) Indicated TNBC cell lines were detached and resuspended at 120,000 cells/ml and added into each well of a transparent 384-well plate in the final volume of 20 µl/well. The cells were maintained in DMEM containing 10% FBS at 37°C, 5% CO2 overnight. Next day, the medium in each well was replaced by 40 μl of the fresh one containing the indicated concentrations of compounds. In case of drug combination experiments, each compound dilution was delivered in corresponding well in 20 μl of medium. […] After incubation for 3–4 days, depending on the cell line, the medium in each well was replaced by 25 μl of 0.5 mg/ml Thiazolyl blue solution in 1xPBS following by incubation for 3 h at 37°C. Then the solution was removed and 25 μl DMSO was added into each well. Absorbance at 510 nm was measured in a Tecan Infinite M200 PRO plate reader.

[2] = tested on: MDA-MB-468 TNBC cell line; assay: MTT survival assay MDA-MB-468; assay type: cell-based; conditions: Homo sapiens, MDA-MB-468; Table S2
Protocol: as §1

BT-20 TNBC cell line = assay: MTT survival assay BT-20; assay type: cell-based; conditions: Homo sapiens, BT-20
Protocol: as §1

HCC1806 TNBC cell line = assay: MTT survival assay HCC1806; assay type: cell-based; conditions: for IC50: Homo sapiens, HCC1806
Protocol: as §1

[3] = tested on: non-cancerous breast epithelial cell line MCF10a; assay: MTT survival assay MCF10a; assay type: cell-based; conditions: for IC50: Homo sapiens, MCF-10A
Protocol: as §1

in vitro = conditions: human, HCC1395 Cytotoxicity IC50
Protocol: (§2) The simplicity of the scaffold combined with synthetic accessibility allows building a library of compounds and performing structure activity relationship (SAR) studies of the three main parts of the molecule: the top part, the linker and the core (Figure 2).
(§3) The synthesized compounds were used to explore SAR of three defined areas of investigation (Figure 2). All compounds were tested in the HCC1395 TNBC cell line using the GSK3β inhibitor to induce β-catenin signaling since 4a acted downstream of GSK3β (Figure 2). Both inhibition of β-catenin signaling measured by the TopFlash reporter and cytotoxicity measured by the Renilla reporter were assessed.
(§4) The Wnt3a or CHIR99021-stimulated luciferase activity in HCC1395 TNBC cell line stably transfected with the TopFlash reporter was analyzed essentially as described for the BT-20 TNBC cell line ([Shaw et al., 2019b]; [Koval et al., 2021]). Reporter cells were seeded at 10,000 cells/well in a white opaque 384-well plate in the final volume of 20 μl of DMEM medium supplemented with 10% FCS. The cells were maintained incubated at 37°C, 5% CO2 overnight for attachment. Subsequently, they were transfected by a plasmid encoding constitutively expressed Renilla luciferase under the CMV promoter overall as described in the manufacturer’s protocol using 12 μg/ml of DNA and 40 μl/ml XtremeGENE nine reagent. The next day, the medium in each well was replaced with a 10 μl of fresh medium containing compound of interest, and, after 1 h of preincubation with the compounds, additional 10 μl of medium supplemented with Wnt3a [purified as described ([Willert et al., 2003]; [Koval and Katanaev, 2011])] or CHIR99021 were added creating respective final concentrations of 2.5 μg/ml or 5 μM of each. In case of other signal transduction reporters, no additional stimulation was performed. Compound dilutions were prepared by serial dilution in DMSO and diluted with the amount of medium necessary to obtain their final concentrations indicated on the figures and tables and maintain concentration of DMSO of 0.5% in all assay points. After overnight incubation, the supernatant in each well was removed, and the luciferase activity was measured as described ([Dyer et al., 2000]; [Huber et al., 2021]; [Pellissier et al., 2021]). The culture medium was completely removed from all wells of the plate. Finally, the luciferase activity of the firefly and Renilla luciferases was detected sequentially in individual wells of a 384-well plate through injection of corresponding measurement solutions and immediate reading (400 ms integration time) in Infinite M Plex multifunctional plate reader with injection module.

HCC1395 cells = assay: in vitro; conditions: for HCC1395 Cytotoxicity Efficacy: human
Protocol: as §2, §3, §4

[4] = tested on: MDA-MB-231 TNBC cell line; assay: MTT survival assay MDA-MB-231; assay type: cell-based; conditions: for IC50: Homo sapiens, MDA-MB-231
Protocol: as §1

TNBC cell proliferation = assay: Loewe synergism with docetaxel in anti-proliferative assay (COMBENEFIT); assay type: cell-based; conditions: Loewe model
Description: The Wnt-pathway is implicated in chemoresistance to conventional chemotherapies and drives a poor chemotherapy response in a broad range of tumors ([O’Reilly et al., 2015]; [Martin-Orozco et al., 2019]; [Zhong and Virshup, 2020]). To assess how combination with our compounds affects the anti-proliferative capacity of docetaxel—one of the first-line treatments for TNBC ([Mandapati and Lukong, 2022]), we performed the Loewe synergism assessment over a complete dose-response range of both compounds followed by analysis in the COMBENEFIT software in Matlab (Figure 7 and Supplementary Figure S1) ([Di Veroli et al., 2016]).
as §1
The data was visualized analyzed in either GraphPad Prism nine using indicated statistical analysis or in R using gplots package ([Warnes et al., 2009]). Dataset from CCLE ([Barretina et al., 2012]) were used in the study and pathway enrichment analysis was performed by DAVID online tool ([Sherman et al., 2022]). Drug combination data was treated in COMBENEFIT software ([Di Veroli et al., 2016]). Network was built using Cytoscape with StringDB plugin ([Shannon et al., 2003]; [Szklarczyk et al., 2021]).

[5] = Table S2, read-out: MTT HCC-1395 IC50
[6] = Table S2, read-out: MTT BT-20 IC50
[7] = Figure 3B heatmap, read-out: IC50, μM (HCC1806)
[8] = Table S2, read-out: MTT HCC1806 IC50
[9] = Figure 3B heatmap, read-out: IC50, μM (MCF10)
[10] = Table S2, read-out: MTT MCF10 IC50
[11] = Table S2, read-out: MTT MDA-MB-231 IC50
[12] = Figure 3B heatmap, read-out: IC50, μM (MDA-MB-231)

Row | SMILES | Emax ([1]; Homo sapiens, HCC1395, HCC1395) | IC50 ([1]; Homo sapiens, HCC1395, HCC1395) | IC50 (HCC1395 TNBC cell line; [5]) | IC50 [2] | IC50 (BT-20 TNBC cell line; [6]) | IC50 (HCC1806 TNBC cell line; [7]) | IC50 (HCC1806 TNBC cell line; [8]) | IC50 [3, 9] | IC50 [3, 10] | IC50 (in vitro) | HCC1395 Cytotoxicity Efficacy (HCC1395 cells) | IC50 [4, 11] | effect of co-treatment with docetaxel (TNBC cell proliferation) | MTT HCC1806 Comments (HCC1806 TNBC cell line; Table S2) | GSK HCC1395 Renilla Comments (HCC1395 cells) | MTT MDA-MB-231 Comments ([4]; Table S2) | IC50 [4, 12] | also measured
1 | COc1cc(CNc2ncnc3sccc23)ccc1F [Compound 4p, N-(4-fluoro-3-methoxybenzyl)thieno[2,3-d]pyrimidin-4-amine] | 71.4 ± 11.1% | 2.59 ± 1.08 µM | 13.6 µM | > 50 µM | > 50 µM | > 10 µM | > 50 µM | > 10 µM | > 50 µM | 4.04 µM | 41.8% | > 50 µM | exclusively synergistic effects | – | – | – | – | GSK HCC1395 Comments ([1]; Table S2): Toxic
2 | COc1ccccc1C(C)Nc1ncnc2sccc12 (centres unmarked) [Compound 5a, N-(1-(2-methoxyphenyl)ethyl)thieno[2,3-d]pyrimidin-4-amine] | 46.1 ± 3.44% | 0.77 ± 0.44 µM | 0.12 µM | 0.1 µM | 4.08 µM | > 50 µM | > 10 µM | – | > 10 µM | > 50 µM | – | > 10 µM | exclusively synergistic effects | Inactive | Non-toxic | Inactive | – | MTT MCF10 Comments ([3]; Table S2): Inactive
3 | c1ccc(CCCNc2ncnc3sccc23)cc1 [Compound 5h, N-(3-phenylpropyl)thieno[2,3-d]pyrimidin-4-amine] | – | > 50 µM | – | > 50 µM | 36.8 µM | > 10 µM | 37.1 µM | > 10 µM | > 50 µM | > 50 µM | – | > 50 µM | – | – | Non-toxic | – | > 10 µM | TopFlash activity in words ([1]; HCC1395, CHIR99021): inactive; IC50 (HCC1395 TNBC cell line; MTT, Figure 3B heatmap and text, read-out: IC50, μM (HCC1395)): > 50 µM; IC50 (BT-20 TNBC cell line; Figure 3B heatmap, no activity up to maximal tested concentration, read-out: IC50, μM (BT20)): > 50 µM; selectivity over the control cells (difference in IC50, MCF10a vs HCC1395) ([3]; MTT IC50 ratio MCF10a / HCC1395): less than 3 fold
4 | Clc1ccccc1CCNc1ncnc2sccc12 [Compound 5k, N-(2-chlorophenethyl)thieno[2,3-d]pyrimidin-4-amine] | 93.2 ± 10.6% | 42.9 ± 50.2 µM | 4.24 µM | > 50 µM | > 50 µM | – | > 50 µM | – | 43.6 µM | > 50 µM | – | > 50 µM | – | – | Non-toxic | – | > 10 µM | –
5 | Clc1cccc(CCNc2ncnc3sccc23)c1 [Compound 5l, N-(3-chlorophenethyl)thieno[2,3-d]pyrimidin-4-amine] | 77.5 ± 16.3% | 1.79 µM | 6.15 µM | 37 µM | 15 µM | – | 38.1 µM | – | > 50 µM | > 50 µM | – | > 50 µM | – | – | Non-toxic | – | > 10 µM | IC50 ([1]; HCC1395): 3.07 ± 2.39 µM
6 | Clc1ccc(CCNc2ncnc3sccc23)cc1 [Compound 5m, N-(4-chlorophenethyl)thieno[2,3-d]pyrimidin-4-amine] | 82 ± 21.1% | 1.79 ± 1.45 µM | 3.7 µM | 8.46 µM | 6.72 µM | – | 13.1 µM | > 10 µM | > 50 µM | > 50 µM | – | > 50 µM | exclusively synergistic effects | – | Non-toxic | – | > 10 µM | MTT MCF10 Comments ([3]; Table S2): Inactive
7 | COc1cccc(CNc2ncnc3ccccc23)c1 [Compound 9b, N-(3-methoxybenzyl)quinazolin-4-amine] | 82.6 ± 13.5% | – | 1.05 µM | 2.62 µM | 1.1 µM | – | > 50 µM | – | 40.1 µM | > 50 µM | – | > 50 µM | – | Inactive | Non-toxic | Inactive | > 10 µM | –
8 | Fc1ccc(CNc2ncnc3ccccc23)cc1 [Compound 9d, N-(4-fluoro)quinazolin-4-amine] | 87.1 ± 4.09% | 0.67 ± 0.13 µM | 1.15 µM | 0.8 µM | 2.92 µM | – | > 10 µM | – | 12.5 µM | > 50 µM | – | > 10 µM | exclusively synergistic effects | Inactive | – | Inactive | – | –
9 | Cc1ccc(CNc2ncnc3ccccc23)cc1 [Compound 9f, N-(4-methyl)quinazolin-4-amine] | 51.6 ± 7.9% | 1.22 ± 0.33 µM | 1.07 µM | 0.83 µM | 6.08 µM | – | 23.4 µM | – | 9.42 µM | 8.13 ± 3.8 µM | 100 ± 0% | > 10 µM | exclusively synergistic effects | – | – | Inactive | – | –
10 | Cc1ccc(C(C)Nc2ncnc3ccccc23)cc1 (centres unmarked) [Compound 9i, N-(1-(p-tolyl)ethyl)quinazolin-4-amine] | 54.6 ± 2.9% | 1.88 ± 0.28 µM | – | – | – | – | – | – | – | 10.3 ± 2.06 µM | 38.7 ± 12.8% | – | exclusively synergistic effects | – | – | – | – | –
